Test results as given in PubChem BioAssay AID489033 (Sanford-Burnham Center for Chemical Genomics, 2010).
Calls of active or inactive are those of the source. The rule behind the calls is not given here.

Test system: 697B B-cell line, NF-kB luciferase reporter luminescence
Assay: NF-kB reporter inhibition in B cells, dose response, selectivity assay for T-cell antigen receptor NF-kB inhibitors, 697B cells, luminescence (AID 489033)

Row | Structure (SMILES) | IC50
1 | CCC(=O)N1c2ccc(S(=O)(=O)N3CCN(c4ccc([N+](=O)[O-])cc4)CC3)cc2CC1C (stereo not given) | > 80 µM (inactive)
2 | COc1ccc(CCNc2nnc(Sc3nnnn3-c3ccccc3)s2)cc1OC | 18.9 µM
3 | C=C(C=O)C[C@@H]1C[C@H](O)C2OC3C[C@]4(C)OC5/C=C\CC6OC7C(CC=CCC6OC5CCCC4OC3CC2O1)OC1CC2OC3CC(=O)OC3C[C@@H](C)C[C@@]2(C)OC1C[C@@H]7C (stereo not given in full) | 1.02 µM
4 | COc1cccc(N2CCN(C(=O)c3ccc(CS(=O)c4ccccc4Cl)o3)CC2)c1 (stereo not given) | 69.8 µM (inactive)
5 | CCOc1cccc(/C=N/Nc2ccc(S(=O)(=O)N(CC)CC)cn2)c1O | 11.3 µM
6 | CCc1c(C)nc2ncnn2c1NCCc1ccc(OC)cc1 | > 80 µM (inactive)
7 | Cc1nn(-c2ccccc2Cl)c(Cl)c1/C=N/Nc1nc2ccccc2s1 | < 0.16 µM
8 | C=CCn1c(SCc2c(C)noc2C)nc2ccccc2c1=O | > 80 µM (inactive)
9 | O=[N+]([O-])c1ccc(O)c(/C=N/Nc2ccc(Cl)nn2)c1 | > 80 µM (inactive)
10 | Cc1ccc(C(=O)N/N=C/c2ccc([N+](=O)[O-])s2)cc1 | 4.21 µM
11 | Nc1ncn([C@@H]2O[C@H](CO)[C@@H](O)[C@H]2O)c(=O)n1 | 11.9 µM
12 | CCCCCCCCCn1c2c(c(=N)c3c1CCC3)CCCC2 | 0.33 µM
13 | Cc1cc(-c2ccc(C)c(S(=O)(=O)N3CCN(c4ccc([N+](=O)[O-])cc4)CC3)c2)on1 | > 80 µM (inactive)
14 | CC(=O)N1c2ccc(S(=O)(=O)N3CCC(C(=O)Nc4cccc(C)n4)CC3)cc2CC1C (stereo not given) | 0.79 µM
15 | COc1ccc(C2=Nn3c(nnc3-c3ccccc3OC)SC2)cc1OC1CCCC1 | 3.54 µM
16 | COC(=O)CCC(=O)NC(=S)Nc1sc(C)c(C)c1C(N)=O | > 80 µM (inactive)
17 | CCCCCCCCCn1c2c(c(=N)c3c1CCC3)CCC2 | 10.7 µM
18 | Cc1ccc2c(c1)Oc1ccc(NC(=O)CCl)cc1C(=O)N2 | 0.72 µM
19 | COc1ccc(C2=NOC(C(=O)NCc3ccc(F)cc3)C2)cc1OC (stereo not given) | > 80 µM (inactive)
20 | Cc1ccc(N2C(=O)c3cccc4c(N)ccc(c34)C2=O)c2cccnc12 | > 80 µM (inactive)
21 | COc1ccc(COC(=O)c2cc([N+](=O)[O-])ccc2N2CCOCC2)cc1F | 37.1 µM (inactive)
22 | CC(=O)O[C@H]1C(=O)[C@@]2(C)C([C@H](OC(=O)c3ccccc3)[C@]3(O)C[C@H](OC(=O)[C@H](O)[C@@H](NC(=O)c4ccccc4)c4ccccc4)C(C)=C1C3(C)C)[C@]1(OC(C)=O)CO[C@@H]1C[C@H]2O (stereo not given in full) | > 80 µM (inactive)
23 | O=[N+]([O-])c1ccc(-c2nc(C(Cl)Cl)c3ccccc3n2)cc1 | 1.6 µM
24 | CC[C@@]1(O)C(=O)OCc2c1cc1n(c2=O)Cc2cc3c(CN(C)C)c(O)ccc3nc2-1 | 0.96 µM
25 | COc1ccccc1N=C(C)C1=C(O)CC(c2ccccc2)CC1=O (stereo not given) | > 80 µM (inactive)

Row | Structure (SMILES) | IC50
26 | CCOC(=O)CC1CCCCN1C(=O)c1cc(COc2cccc3cnccc23)on1 (stereo not given) | > 80 µM (inactive)
27 | Cc1cc(-c2ccc(S(=O)(=O)N(C)c3ccc(C)c(C)c3)s2)on1 | > 80 µM (inactive)
28 | CSc1nccc(-c2nn(-c3ccc(C)cc3)ccc2=O)n1 | > 80 µM (inactive)
29 | COc1cc(-c2c(-c3cc(OC)c(OC)c(OC)c3)noc2C)ccc1F | > 80 µM (inactive)
30 | COc1cc(C2C(C#N)=C(N)Oc3cc(N(C)C)ccc32)cc2c1OCO2 (stereo not given) | > 80 µM (inactive)
31 | N/C(=N\OCc1ccc([N+](=O)[O-])cc1)c1ccccn1 | 2.43 µM
32 | CCOc1ccc2c(c1)OC(c1ccc(OC)cc1)(C(F)(F)F)NC2=O (stereo not given) | > 80 µM (inactive)
33 | COc1ccc(-n2nnnc2-c2ccccc2)cc1 | > 80 µM (inactive)
34 | COc1ccc(/C=N/Nc2cc(C)nc3ccc(OC)cc23)c(OC)c1 | 5.2 µM
35 | COc1cc(OC)c(/C=C2\C(=O)Nc3ccccc32)c(OC)c1 | 62.6 µM (inactive)
36 | COc1ccc(OC)c(Nc2cc(-c3ccccc3)nc(N)n2)c1 | > 80 µM (inactive)
37 | COc1cc(-c2noc(C)c2/C=C/c2cccc([N+](=O)[O-])c2)cc(OC)c1OC | > 80 µM (inactive)
38 | COc1ccc(C)cc1NS(=O)(=O)c1ccc(-c2cnc(C3CC3)o2)cc1 | > 80 µM (inactive)
39 | COc1cccc(/C=N/Nc2ncnc3scc(-c4ccccc4)c23)c1O | 39.8 µM (inactive)
40 | COc1cc(C(=O)OCCc2cc3ccccc3c(=O)o2)cc(OC)c1OC | > 80 µM (inactive)
41 | COC(=O)c1ccccc1NC(=O)CSc1nc(-c2ccco2)cc(C(F)(F)F)n1 | > 80 µM (inactive)
42 | C=C(C)COc1ccc(-c2n[nH]c(C)c2-c2ccc(OC)c(OC)c2)c(O)c1 | 43.3 µM (inactive)
43 | CCCC(=O)NC(c1ccc(C(C)C)cc1)c1ccc2cccnc2c1O (stereo not given) | > 80 µM (inactive)
44 | COc1cccc(CN(C)C(=O)c2cc(COc3ccc4ncccc4c3)on2)c1 | > 80 µM (inactive)
45 | O=C(NN=Cc1c(O)ccc2ccccc12)c1ccc2c(c1)OCO2 | > 80 µM (inactive)
46 | Cc1ccc(C(=O)Nc2cccc(C(=O)O)c2)cc1 | 1.7 µM
47 | COc1cc(Cn2c(-c3nonc3N)nc3ccccc32)ccc1C | > 80 µM (inactive)
48 | COc1ccc(OC)c(NS(=O)(=O)c2ccc(N3CCCC3=O)cc2)c1 | > 80 µM (inactive)
49 | Cc1cc(-c2ccc(C(C)C)c(S(=O)(=O)N3CCN(c4ccccc4)CC3)c2)on1 | > 80 µM (inactive)
50 | CCOc1ccccc1NC(=O)Cn1nnc(C(=O)NCc2ccco2)c1N | > 80 µM (inactive)
